Test systems include NCI-H23 lung; A498 renal; TK-10 renal; MOLT-4 leukemia; T-47D breast; BT-549 breast; NCI-H522 lung; CAKI-1 renal; CCRF-CEM leukemia; SN12C renal.
Holding throughout (test): DTP human tumour cell line panel, 48 h

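Briefly, cells in 96-well plates were exposed to five compound concentrations for 48 h, and endpoints were estimated by linear interpolation. TGI marks complete inhibition of growth.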 Some results are limits rather than exact numbers.

In general, TGI refers to the concentration at which net growth stops. Take `C1=Nc2ccc(cc2)-c2ccc(cc2)N=Cc2ccccc2OCc2cccc(n2)COc2ccccc21`: the TGI is 45.9 µM in the assay on NCI-H23 lung; above 100 µM in the assay with A498 renal; above 93.3 µM with TK-10 renal; above 100 µM in the assay on MOLT-4 leukemia; above 100 µM with T-47D breast; above 95.4 µM in the assay on BT-549 breast. The TGI in the assay with NCI-H522 lung was above 96.5 µM; in the assay with CAKI-1 renal, above 100 µM; with CCRF-CEM leukemia it was above 100 µM; with SN12C renal it was above 100 µM.

As to `COc1cc([C@@H]2c3cc4c(cc3[C@H](OC3OC5COC(C(C)C)OC5C(O)C3O)C3COC(=O)[C@@H]32)OCO4)cc(OC)c1OC` (stereo not given in full), the TGI is 16.5 µM in the assay with NCI-H23 lung; 9.96 µM with A498 renal; above 100 µM in the assay on TK-10 renal; above 68.4 µM with MOLT-4 leukemia; 65.5 µM with T-47D breast; 20.2 µM with BT-549 breast. In addition, the TGI is 17.7 µM with NCI-H522 lung, 17.5 µM in the assay on CAKI-1 renal, above 29.6 µM in the assay with CCRF-CEM leukemia and above 100 µM in the assay with SN12C renal.

Take `O=C(O)Cn1cnc2c(=O)[nH]c(Nc3ccccc3)nc21`: the TGI in the assay on NCI-H23 lung, in the assay on A498 renal, with TK-10 renal, with MOLT-4 leukemia, with T-47D breast and with BT-549 breast was above 100 µM each time. The TGI in the assay with NCI-H522 lung, in the assay with CAKI-1 renal, in the assay with CCRF-CEM leukemia and with SN12C renal was above 100 µM throughout.

On to `Nc1nc(Cl)cc(Oc2ccc(Cl)cc2)n1`, for which the TGI with NCI-H23 lung, in the assay with A498 renal, in the assay on TK-10 renal, in the assay on MOLT-4 leukemia, in the assay on T-47D breast and with BT-549 breast was above 100 µM throughout. The TGI with NCI-H522 lung is above 72.8 µM; in the assay on CAKI-1 renal it was above 100 µM; in the assay with CCRF-CEM leukemia, above 100 µM; with SN12C renal, above 100 µM.

Regarding `CN1CN(c2ccccc2)C2(CCN(C(=O)OC(C)(C)C)CC2)C1=O`, the TGI in the assay on NCI-H23 lung, in the assay on A498 renal, in the assay on TK-10 renal, in the assay on MOLT-4 leukemia, with T-47D breast and with BT-549 breast was above 100 µM in each case. Besides, the TGI in the assay with NCI-H522 lung, in the assay on CAKI-1 renal, in the assay with CCRF-CEM leukemia and in the assay with SN12C renal was above 100 µM each time.

For the molecule `Cc1ccnc2[nH]c(-c3ccc(Cl)cc3)cc(=O)c12`, the TGI was above 100 µM in the assay on NCI-H23 lung; 46.6 µM in the assay on A498 renal; above 100 µM with TK-10 renal; above 100 µM in the assay with MOLT-4 leukemia; above 100 µM with T-47D breast; above 100 µM in the assay with BT-549 breast. The total growth inhibition concentration (TGI) in the assay with NCI-H522 lung, in the assay with CAKI-1 renal, in the assay with CCRF-CEM leukemia and in the assay with SN12C renal was above 100 µM in each case.

For the molecule `COc1cc2c(cc1OC)C/C(=N\O)c1cc(OC)c(OC)cc1/C=C\2`, the TGI was above 100 µM in the assay on NCI-H23 lung; above 100 µM in the assay on A498 renal; above 72.6 µM in the assay with TK-10 renal; above 85 µM in the assay on MOLT-4 leukemia; above 84.3 µM in the assay with T-47D breast; 97.1 µM in the assay on BT-549 breast. Besides, the TGI in the assay on NCI-H522 lung is 4.8 µM; with CAKI-1 renal it was above 29.4 µM; with CCRF-CEM leukemia, above 100 µM; with SN12C renal it was above 100 µM.

On to `C=C1C(O)C2OC(=O)C(=C)C2C(OC(=O)/C(C)=C/C)CC2(C)OC2C2OC12` (stereo not given), for which the concentration for total growth inhibition (TGI) in the assay with NCI-H23 lung is 35.3 µM; in the assay with A498 renal, 46.4 µM; in the assay with TK-10 renal, 47.2 µM; in the assay on MOLT-4 leukemia it was 31.2 µM; in the assay on T-47D breast, above 100 µM; in the assay with BT-549 breast it was 27.2 µM. Also, the TGI in the assay on NCI-H522 lung is 15.6 µM; with CAKI-1 renal it was 26.9 µM; in the assay with CCRF-CEM leukemia, above 100 µM; with SN12C renal, 14.8 µM.

For the molecule `OC[C@H](O)[C@@H](OCc1ccccc1)[C@H](NCc1ccccc1)c1cccs1`, the TGI in the assay on NCI-H23 lung, in the assay with A498 renal, in the assay on TK-10 renal, in the assay on MOLT-4 leukemia, with T-47D breast and in the assay on BT-549 breast was above 100 µM in each case. Further, the TGI with NCI-H522 lung, in the assay with CAKI-1 renal, in the assay with CCRF-CEM leukemia and in the assay with SN12C renal was above 100 µM each time.

On to `COc1ccc(C2=Nn3c(nc4sc5c(c4c3=O)CCCC5)SC2)cc1`, for which the TGI in the assay on NCI-H23 lung, with A498 renal, with TK-10 renal, with MOLT-4 leukemia, in the assay on T-47D breast and with BT-549 breast was above 100 µM throughout. Further, the TGI in the assay on NCI-H522 lung, in the assay on CAKI-1 renal, in the assay with CCRF-CEM leukemia and in the assay with SN12C renal was above 100 µM in each case.

In the case of `Cc1ccc(S(=O)(=O)N(CC(O)COc2ccccc2)c2ccccc2Cl)cc1` (stereo not given), the TGI with NCI-H23 lung is 31.1 µM; in the assay with A498 renal it was 35 µM; in the assay with TK-10 renal, 29.3 µM; in the assay with MOLT-4 leukemia it was 52.9 µM; in the assay with T-47D breast, 69.7 µM; in the assay on BT-549 breast it was 31.4 µM. Further, the TGI in the assay with NCI-H522 lung is 25.1 µM; with CAKI-1 renal it was 44.3 µM; with CCRF-CEM leukemia, 40.4 µM; with SN12C renal, 29.4 µM.

On to `c1ccc(C(OCCN2CC3CCC(C2)N3)c2ccccc2)cc1`, for which the TGI with NCI-H23 lung, in the assay on A498 renal, with TK-10 renal, with MOLT-4 leukemia, in the assay on T-47D breast and with BT-549 breast was above 100 µM throughout. In addition, the TGI in the assay on NCI-H522 lung is 93.1 µM; in the assay with CAKI-1 renal, above 100 µM; with CCRF-CEM leukemia it was above 100 µM; with SN12C renal, above 100 µM.

As to `Cc1cccc(N=Nc2ccc(O)c(CN(C)C)c2)c1`, the TGI is above 100 µM with NCI-H23 lung; 38.8 µM in the assay on A498 renal; 72.4 µM in the assay on TK-10 renal; 91.6 µM in the assay on MOLT-4 leukemia; 57.5 µM in the assay on T-47D breast; above 100 µM with BT-549 breast. In addition, the TGI with NCI-H522 lung was 24.1 µM; with CAKI-1 renal, above 100 µM; with CCRF-CEM leukemia, 4.69 µM; in the assay on SN12C renal, above 100 µM.

Source of the values: PubChem BioAssay (NCI).
